Experimental data: publication PMC6277555, “Short Symmetric-End Antimicrobial Peptides Centered on β-Turn Amino Acids Unit Improve Selectivity and Stability” (Frontiers in Microbiology, 2018)
Converted amounts (≈) assume the structure as drawn. No end group written: not given here.

Columns and labels:
[1] = RP-HPLC retention time as measure of relative hydrophobicity; assay type: physicochemical; settings: analytical RP-HPLC; hydrophobicity increases with retention time
Experimental: These peptides' […] identified via matrix-assisted laser desorption/ionization time-of-flight mass spectrometry (MALDI-TOF MS, Linear Scientific Inc., United States), using α-cyano-4-hydroxycinnamic acid as the matrix. […] Quantitative peptides were dissolved in deionized water and stored at -20°C before the assessments. The rest of the peptides were stored as powders at -20°C to prevent peptide degradation. The structures and molecular weights of the peptides were verified by MALDI-TOF MS. […] The relative hydrophobicity of the symmetric-end peptides was reliably reflected by their different HPLC retention times, and the hydrophobicity increased with increasing HPLC retention times ([Lee et al., 2014]; [Zhu et al., 2014]). The HPLC retention times for […]

E. coli ATCC25922 = assay type: cell-based, Escherichia coli; settings: for MIC / MIC, CaCl2 / MIC, Control / MIC, FeCl3 / MIC, Heat (100°C) / MIC, KCl / MIC, MgCl2 / MIC, NH4Cl / MIC, NaCl / MIC, ZnCl2: ATCC25922; for MIC, pH 4.0: ATCC25922, pH 4; for MIC, pH 6.0: ATCC25922, pH 6; for MIC, pH 8.0: ATCC25922, pH 8; for MIC, pH 10.0: ATCC25922, pH 10
Experimental: (§1) The minimal inhibitory concentration (MIC) was determined according to a previously described method ([Chou et al., 2016]). Bacteria were cultured overnight to mid-log phase in MHB at 37°C and then diluted to give final concentrations ranging from 2 × 10^5 to 7 × 10^5 CFU/mL. Then, 50 μL of serial twofold dilutions of the peptides were added to each well in 96-well microtiter plates with a mixed solution containing 0.01% acetic acid and 0.2% bovine serum albumin (BSA, Sigma) was used to dissolve and dilute the peptides. Then, equal amounts of bacterial aliquots were incubated with the above peptide solution for 18-24 h at 37°C. The experiment was performed in triplicate using three replicates for each peptide and each bacterium. The broth was employed as a negative control and the broth with microbial cells was used as a positive control. The lowest concentration of peptide that prevented visible turbidity was defined as the MIC. The condition sensitivity of peptides was tested in an MIC assay in different environments, including salt sensitivity, thermal sensitivity and different pH values similar to our previous method ([[…] et al., 2008]; [Ma et al., 2012]). […] For the heat resistance experiments, the peptides were incubated at 100°C for 30 min and cooled on ice for 10 min. […] The determination methods for these MIC assays were same as described above. To test the effects of serum on the antimicrobial activities of the peptides, human serum was dissolved in MHB to reach final concentrations of 25 and 50%. The determination methods for these MIC assays were same as described above.

E. coli UB1005 = assay type: cell-based, Escherichia coli
Experimental: (§2) The minimal inhibitory concentration (MIC) was determined according to a previously described method ([Chou et al., 2016]). Bacteria were cultured overnight to mid-log phase in MHB at 37°C and then diluted to give final concentrations ranging from 2 × 10^5 to 7 × 10^5 CFU/mL. Then, 50 μL of serial twofold dilutions of the peptides were added to each well in 96-well microtiter plates with a mixed solution containing 0.01% acetic acid and 0.2% bovine serum albumin (BSA, Sigma) was used to dissolve and dilute the peptides. Then, equal amounts of bacterial aliquots were incubated with the above peptide solution for 18–24 h at 37°C. The experiment was performed in triplicate using three replicates for each peptide and each bacterium. The broth was employed as a negative control and the broth with microbial cells was used as a positive control. The lowest concentration of peptide that prevented visible turbidity was defined as the MIC.

B. pyocyaneum ATCC 27853 = assay type: cell-based, Bacterium pyocyaneum
Experimental: as §2

S. typhimurium ATCC 7731 = assay type: cell-based, Salmonella entericaserovar Typhimurium
Experimental: as §2

S. pullorum C79-13 = assay type: cell-based, Salmonella pullorum
Experimental: as §2

S. aureus ATCC 29213 = assay type: cell-based, Staphylococcus aureus; settings: for MIC / MIC, CaCl2 / MIC, Control / MIC, FeCl3 / MIC, Heat (100°C) / MIC, KCl / MIC, MgCl2 / MIC, NH4Cl / MIC, NaCl / MIC, ZnCl2: ATCC 29213; for MIC, pH 4.0: ATCC 29213, pH 4; for MIC, pH 6.0: ATCC 29213, pH 6; for MIC, pH 8.0: ATCC 29213, pH 8; for MIC, pH 10.0: ATCC 29213, pH 10
Experimental: as §1

S. aureus ATCC 43300 = assay type: cell-based, Staphylococcus aureus
Experimental: as §2

[2] = tested on: S. epidermidis ATCC 12228; assay type: cell-based, Staphylococcus epidermidis
Experimental: as §2

S. faecalis ATCC 29212 = assay type: cell-based, Streptococcus faecalis
Experimental: as §2

B. subtilis CMCC 63501 = assay type: cell-based, Bacillus subtilis
Experimental: as §2

E. coli = test: Time killing assay; assay type: cell-based, Escherichia coli; settings: mean of three independent assays
Experimental: (§3) The ability of peptides to kill bacterial cells was further investigated by analyzing the fraction of cell survival upon peptide treatment at various exposure times according to a previously described method ([Wiradharma et al., 2012]). Briefly, E. coli and S. aureus were treated at MIC and 2 × MIC concentrations with peptides. At various time periods (0, 5, 10, 30, 60, 90, 120, and 150 min), microbial suspensions were diluted at three different dilutions and plated on MHA plates. Microbial colonies were formed and counted after 24 h of incubation. The results were presented as the mean data from three independent assays.

S. aureus = test: Time killing assay; assay type: cell-based, Staphylococcus aureus; settings: mean of three independent assays
Experimental: as §3

hRBCs = test: Hemolytic activity; assay type: cell-based, human; settings: peptide concentration resulting in 5% hemolysis of hRBCs; PBS, 1 h, 37°C
Experimental: (§4) The hemolytic activity of the peptides was detected using a previously described modified method ([Wang et al., 2015]). One milliliter of fresh hRBCs was obtained from a healthy donor (Zhihua Wang, Harbin, China) in a polycarbonate tube containing heparin. The collected hRBCs were centrifuged at 1000 × g for 5 min at 4°C and resuspended in PBS buffer (pH 7.2). The hRBCs were washed three times and then incubated with an equal volume of the respective peptide dissolved in PBS for 1 h at 37°C. Then, the hRBC suspension was placed into a 96-well microtiter plater with 50 μL of tested peptide solution at different concentrations and the mixture was incubated for 1 h at 37°C. […] The minimum hemolytic concentrations (MHCs) were defined as the peptide concentrations resulting in 5% hemolysis.

[3] = tested on: Gram-negative and Gram-positive bacterial strains; test: Geometric mean of MICs and therapeutic index; assay type: cell-based; settings: for GM (geometric mean of the MIC values): all ten tested strains; for Therapeutic index: from MHC and GM
Experimental: as §4, §2

## CC(C)C[C@H](NC(=O)[C@H](CCCNC(=N)N)NC(=O)CNC(=O)CNC(=O)[C@@H](N)CCCNC(=N)N)C(=O)N[C@H]1CSSC[C@@H](C(=O)N[C@H](C(=O)NCC(=O)N[C@@H](CCCNC(=N)N)C(N)=O)C(C)C)NC(=O)[C@H](C(C)C)NC(=O)[C@@H]2CSSC[C@H](NC(=O)[C@H](Cc3ccc(O)cc3)NC1=O)C(=O)N[C@@H](CCCNC(=N)N)C(=O)N[C@@H](CCCNC(=N)N)C(=O)N[C@@H](CCCNC(=N)N)C(=O)N[C@@H](Cc1ccccc1)C(=O)N2 [PG-1, reference compound]
[1]
  Retained time (HPLC retention time): 12.56 min
E. coli ATCC25922
  MIC: 2 µM (≈ 4.31 µg/mL)
  MIC, CaCl2: 4 µM (≈ 8.62 µg/mL)
  MIC, Control: 2 µM (≈ 4.31 µg/mL)
  MIC, FeCl3: 4 µM (≈ 8.62 µg/mL)
  MIC, Heat (100°C): 8 µM (≈ 17.2 µg/mL)
  MIC, KCl: 2 µM (≈ 4.31 µg/mL)
  MIC, MgCl2: 2 µM (≈ 4.31 µg/mL)
  MIC, NH4Cl: 2 µM (≈ 4.31 µg/mL)
  MIC, NaCl: 4 µM (≈ 8.62 µg/mL)
  MIC, ZnCl2: 2 µM (≈ 4.31 µg/mL)
  MIC, pH 4.0: 4 μM
  MIC, pH 6.0: 4 μM
  MIC, pH 8.0: 4 μM
  MIC, pH 10.0: 4 μM
E. coli UB1005
  MIC: 2 µM (≈ 4.31 µg/mL)
B. pyocyaneum ATCC 27853
  MIC: 16 µM (≈ 34.5 µg/mL)
S. typhimurium ATCC 7731
  MIC: 8 µM (≈ 17.2 µg/mL)
S. pullorum C79-13
  MIC: 2 µM (≈ 4.31 µg/mL)
S. aureus ATCC 29213
  MIC: 8 µM (≈ 17.2 µg/mL)
  MIC, CaCl2: 16 µM (≈ 34.5 µg/mL)
  MIC, Control: 8 µM (≈ 17.2 µg/mL)
  MIC, FeCl3: 8 µM (≈ 17.2 µg/mL)
  MIC, Heat (100°C): 16 µM (≈ 34.5 µg/mL)
  MIC, KCl: 8 µM (≈ 17.2 µg/mL)
  MIC, MgCl2: 8 µM (≈ 17.2 µg/mL)
  MIC, NH4Cl: 8 µM (≈ 17.2 µg/mL)
  MIC, NaCl: 32 µM (≈ 69 µg/mL)
  MIC, ZnCl2: 8 µM (≈ 17.2 µg/mL)
  MIC, pH 4.0: 8 μM
  MIC, pH 6.0: 8 μM
  MIC, pH 8.0: 8 μM
  MIC, pH 10.0: 16 μM
S. aureus ATCC 43300
  MIC: 2 µM (≈ 4.31 µg/mL)
[2]
  MIC: 16 µM (≈ 34.5 µg/mL)
S. faecalis ATCC 29212
  MIC: 16 µM (≈ 34.5 µg/mL)
B. subtilis CMCC 63501
  MIC: 8 µM (≈ 17.2 µg/mL)
E. coli; peptide at 1 × MIC
  Time to kill E. coli: 10 min
E. coli; peptide at 2 × MIC
  Time to kill E. coli: 10 min
S. aureus; peptide at 1 × MIC
  Time to kill S. aureus: 5 min
S. aureus; peptide at 2 × MIC
  Time to kill S. aureus: 10 min

## IHKFWRRWFKHI-NH2 [Qa]
E. coli ATCC25922
  MIC: 16 µM
E. coli UB1005
  MIC: 8 µM
B. pyocyaneum ATCC 27853
  MIC: 16 µM
S. typhimurium ATCC 7731
  MIC: 16 µM
S. pullorum C79-13
  MIC: 16 µM
S. aureus ATCC 29213
  MIC: 8 µM
S. aureus ATCC 43300
  MIC: 16 µM
[2]
  MIC: 16 µM
S. faecalis ATCC 29212
  MIC: 16 µM
B. subtilis CMCC 63501
  MIC: 32 µM
hRBCs
  MHC (minimum hemolytic concentration): >128 µM
[3]
  GM (geometric mean of the MIC values): 14.9 µM
  Therapeutic index: 17.2

## IHKFWRGGRWFKHI-NH2 [GG]
[1]
  Retained time (HPLC retention time): 10.24 min
E. coli ATCC25922
  MIC: 8 µM
E. coli UB1005
  MIC: 8 µM
B. pyocyaneum ATCC 27853
  MIC: 16 µM
S. typhimurium ATCC 7731
  MIC: 64 µM
S. pullorum C79-13
  MIC: 8 µM
S. aureus ATCC 29213
  MIC: 16 µM
S. aureus ATCC 43300
  MIC: 32 µM
[2]
  MIC: 32 µM
S. faecalis ATCC 29212
  MIC: 32 µM
B. subtilis CMCC 63501
  MIC: 16 µM

## IHFKWRRWKFHI-NH2 [Qna]
E. coli ATCC25922
  MIC: 32 µM
E. coli UB1005
  MIC: 16 µM
B. pyocyaneum ATCC 27853
  MIC: 32 µM
S. typhimurium ATCC 7731
  MIC: 32 µM
S. pullorum C79-13
  MIC: 32 µM
S. aureus ATCC 29213
  MIC: 32 µM
S. aureus ATCC 43300
  MIC: 32 µM
[2]
  MIC: 32 µM
S. faecalis ATCC 29212
  MIC: 64 µM
B. subtilis CMCC 63501
  MIC: 64 µM
hRBCs
  MHC (minimum hemolytic concentration): >128 µM
[3]
  GM (geometric mean of the MIC values): 34.3 µM
  Therapeutic index: 7.5

## IHKFWRPGRWFKHI-NH2 [PP]
E. coli ATCC25922
  MIC: 8 µM
  MIC, CaCl2: 4 µM
  MIC, Control: 8 µM
  MIC, FeCl3: 4 µM
  MIC, Heat (100°C): 8 µM
  MIC, KCl: 4 µM
  MIC, MgCl2: 2 µM
  MIC, NH4Cl: 2 µM
  MIC, NaCl: 8 µM
  MIC, ZnCl2: 2 µM
  MIC, pH 4.0: 8 μM
  MIC, pH 6.0: 8 μM
  MIC, pH 8.0: 16 μM
  MIC, pH 10.0: 8 μM
E. coli UB1005
  MIC: 4 µM
B. pyocyaneum ATCC 27853
  MIC: 4 µM
S. typhimurium ATCC 7731
  MIC: 8 µM
S. pullorum C79-13
  MIC: 4 µM
S. aureus ATCC 29213
  MIC: 16 µM
  MIC, CaCl2: 32 µM
  MIC, Control: 16 µM
  MIC, FeCl3: 8 µM
  MIC, Heat (100°C): 16 µM
  MIC, KCl: 16 µM
  MIC, MgCl2: 16 µM
  MIC, NH4Cl: 8 µM
  MIC, NaCl: 128 µM
  MIC, ZnCl2: 4 µM
  MIC, pH 4.0: 16 μM
  MIC, pH 6.0: 16 μM
  MIC, pH 8.0: 16 μM
  MIC, pH 10.0: 16 μM
S. aureus ATCC 43300
  MIC: 16 µM
[2]
  MIC: 16 µM
S. faecalis ATCC 29212
  MIC: 8 µM
B. subtilis CMCC 63501
  MIC: 8 µM
hRBCs
  MHC (minimum hemolytic concentration): >128 µM
[3]
  GM (geometric mean of the MIC values): 8.0 µM
  Therapeutic index: 32.0
